Results from patent publication US8211909B2, “Treatment of antibiotic-resistant bacteria infection” (TaiGen Biotechnology Co., Ltd., priority 2008, dated 2012).
Converted amounts (≈) assume the structure as drawn. Where two headings read alike, the source gives them in different places.

Assays:
[1] = test system: Staphylococcus aureus strains (MRSA, hVISA, VISA, VRSA, quinolone-resistant MRSA); test: MIC by agar dilution against Staphylococcal strains (MRSA, hVISA, VISA, VRSA, quinolone-resistant MRSA); type: cell-based
Experimental: Compound 1 was tested for its inhibitory effect against 26 Methicillin-resistant Staphylococcus aureus (MRSA) strains, 2 hetero-Vancomycin intermediate Staphylococcus aureus (hVISA) strains, 24 Vancomycin-intermediate Staphylococcus aureus (VISA) strains, 5 Vancomycin-resistant Staphylococcus aureus (VRSA) strains, and 31 quinolone-resistant Vancomycin-susceptibale MRSA strains with defined mutations in QRDR. These mutations were determined by sequencing analysis of the QRDR (gyrA, gyrB, grlA, and grlB). Efflux testing was performed by the reserpine method (Brenwald, et al., Antimicrob. Agents Chemother. 1998, 42: 2032-2035).

[2] = test system: Methicillin-resistant Staphylococcus aureus (MRSA) isolates; test: MIC by broth microdilution (CLSI) against CAN-ICU MRSA isolates; type: cell-based; details: Staphylococcus aureus
From the text: MRSA isolates (n=193) were obtained as part of the Canadian National Intensive Care Unit (CAN-ICU) Study. 19 medical centers from all regions of Canada with active ICUs participated in the CAN-ICU study included. They were requested to only obtain “clinically significant” specimens from patients with a presumed infectious disease. Surveillance swabs, eye, ear, nose and throat swabs were excluded. Anaerobic organisms and fungal organisms were also excluded.
From September 2005-June 2006 (inclusive), each center collected a maximum of 300 consecutive pathogens isolated from blood, urine, tissue/wound, and respiratory specimens (one pathogen per cultured site per patient) of ICU patients. These isolates were shipped to the reference laboratory (Health Sciences Centre, Winnipeg, Canada) on Amies charcoal swabs, subcultured in appropriate media, and stocked in skim milk at −80° C.
All isolates underwent mecA PCR, as well as molecular characterization (including PVL analysis and fingerprinting), as previously described, to assess whether they were community-associated or healthcare-associated (Christianson et al., J Clin Microbiol. 2007, 45 (6): 1904-11; Mulvey et al., J Clin. Microbiol. 2001, 39(10): 3481-5; Mulvey et al., Emerg Infect Dis. 2005,11(6): 844-50; Oliveira et al., Antimicrob Agents Chemother. 2002, 46(7): 2155-61). The isolates were also subtyped using pulsed-field gel electrophoresis (PFGE) following the Canadian standardized protocol as previously described (Mulvey et al., J Clin Microbiol. 2001, 39(10): 3481-5). Their PFGE fingerprints thus obtained were analyzed with BioNumerics v3.5 (Applied Maths St. Marten-Latem, Belgium) using a position tolerance of 1.0 and an optimization of 1.0. Strain relatedness was determined as previously described (Tenover et al., 1995). The fingerprints of the isolates were compared to the national MRSA fingerprint database and were grouped into one of 10 Canadian epidemic MRSA (CMRSA-1, CMRSA-2, etc) as previously described (Mulvey et al., Emerg Infect Dis. 2005,11(6):844-50).
Compound 1 and other antibiotics were tested for their inhibitory activity against the MRSA isolates using the broth microdilution guidelines as stipulated by the Clinical and Laboratory Standards Institute.

H. pylori isolates = test: MIC by agar dilution against 200 H. pylori isolates (Taiwan); type: cell-based, Helicobacter pylori; details: for share of isolates resistant: 200 H. pylori isolates, resistance: amoxicillin MICs≧0.5, clarithromycin ≧1, metronidazole ≧8, ciprofloxacin ≧1, levofloxacin ≧1 μg/mL
Experimental: MICs were determined using the agar dilution methods recommended by the Clinical and Laboratory Standards Institute (CLSI-M100-S18).

[3] = hVISA(2) + VISA (24) + VRSA (5)
[4] = MRSA (n = 193), read-out: MIC50
[5] = MRSA (n = 193), read-out: MIC90
[6] = MRSA (n = 193), read-out: MIC Range Max
[7] = MRSA (n = 193), read-out: MIC Range Min
[8] = Staphylococcus aureus, MRSA (26)
[9] = Staphylococcus aureus, Quinolone-resistant MRSA (31)
[10] = Staphylococcus aureus, hVISA(2) + VISA (24) + VRSA (5)
[11] = Staphylococcus aureus, read-out: MIC Range, MRSA (26)
[12] = Staphylococcus aureus, read-out: MIC Range, Quinolone-resistant MRSA (31)
[13] = Helicobacter pylori, 200 isolates of H. pylori

Question: Which MIC50 ([1]; MRSA (26)) does the source give for Teicoplanin here?
Answer: 0.5 µg/mL

Question: What about the MIC90 ([1]; MRSA (26)) of the same molecule?
Answer: 1 µg/mL

Question: What about the “MIC Range” value ([1]; MRSA (26)) of the same molecule?
Answer: 0.5 to 1 µg/mL

Question: What about the MIC50 ([1]; Quinolone-resistant MRSA (31)) of the same molecule?
Answer: 0.5 µg/mL

Question: What about the MIC90 ([1]; Quinolone-resistant MRSA (31)) of the same molecule?
Answer: 1 µg/mL

Question: What about the “MIC Range” value ([1]; Quinolone-resistant MRSA (31)) of the same molecule?
Answer: 0.25 to 2 µg/mL

Question: What about the MIC50 [1, 3] of the same molecule?
Answer: 8 µg/mL

Question: What about the MIC90 [1, 3] of the same molecule?
Answer: 16 µg/mL

Question: And the “MIC Range” value [1, 3]?
Answer: 1 to 32 µg/mL

Question: For `CC[C@H]1OC(=O)[C@H](C)[C@@H](O[C@H]2C[C@@](C)(OC)[C@@H](O)[C@H](C)O2)[C@H](C)[C@@H](O[C@@H]2O[C@H](C)C[C@H](N(C)C)[C@H]2O)[C@](C)(OC)C[C@@H](C)C(=O)[C@H](C)[C@@H](O)[C@]1(C)O` [Clarithromycin], which MIC50 [2, 4] is on record?
Answer: > 32 µg/mL

Question: And the MIC90 [2, 5]?
Answer: > 32 µg/mL

Question: And the MIC [2, 6]?
Answer: > 32 µg/mL

Question: What about the MIC [2, 7] of the same molecule?
Answer: 0.25 µg/mL (≈ 0.334 µM)

Question: And the “share of isolates resistant” value (H. pylori isolates)?
Answer: 6%

Question: With `CN[C@H](CC(C)C)C(=O)N[C@H]1C(=O)N[C@@H](CC(N)=O)C(=O)N[C@H]2C(=O)N[C@H]3C(=O)N[C@H](C(=O)N[C@H](C(=O)O)c4cc(O)cc(O)c4-c4cc3ccc4O)[C@H](O)c3ccc(c(Cl)c3)Oc3cc2cc(c3O[C@@H]2O[C@H](CO)[C@@H](O)[C@H](O)[C@H]2O[C@H]2C[C@](C)(N)[C@H](O)[C@H](C)O2)Oc2ccc(cc2Cl)[C@H]1O` [Vancomycin] as the molecule, how does the MIC50 ([2]; MRSA) read?
Answer: 1 µg/mL (≈ 0.69 µM)

Question: And the MIC90 ([2]; MRSA)?
Answer: 1 µg/mL (≈ 0.69 µM)

Question: What about the MIC50 ([2]; MRSA / USA100) of the same molecule?
Answer: 1 µg/mL (≈ 0.69 µM)

Question: What about the MIC90 ([2]; MRSA / USA100) of the same molecule?
Answer: 1 µg/mL (≈ 0.69 µM)

Question: And the MIC50 ([2]; MRSA / USA200)?
Answer: 0.5 µg/mL (≈ 0.345 µM)

Question: And the MIC90 ([2]; MRSA / USA200)?
Answer: 0.5 µg/mL (≈ 0.345 µM)

Question: And the MIC50 ([2]; MRSA / USA300)?
Answer: 0.5 µg/mL (≈ 0.345 µM)

Question: And the MIC90 ([2]; MRSA / USA300)?
Answer: 0.5 µg/mL (≈ 0.345 µM)

Question: And the MIC50 ([2]; MRSA / USA400)?
Answer: 1 µg/mL (≈ 0.69 µM)

Question: What about the MIC90 ([2]; MRSA / USA400) of the same molecule?
Answer: 1 µg/mL (≈ 0.69 µM)

Question: What about the MIC50 ([2]; MRSA / USA600) of the same molecule?
Answer: 1 µg/mL (≈ 0.69 µM)

Question: And the MIC90 ([2]; MRSA / USA600)?
Answer: 1 µg/mL (≈ 0.69 µM)

Question: What about the MIC ([2]; MRSA, read-out: MIC Range Max) of the same molecule?
Answer: 1 µg/mL (≈ 0.69 µM)

Question: And the MIC ([2]; MRSA, read-out: MIC Range Min)?
Answer: 0.5 µg/mL (≈ 0.345 µM)

Question: And the MIC50 [1, 8]?
Answer: 1 µg/mL (≈ 0.69 µM)

Question: What about the MIC90 [1, 8] of the same molecule?
Answer: 1 µg/mL (≈ 0.69 µM)

Question: And the MIC50 [1, 9]?
Answer: 1 µg/mL (≈ 0.69 µM)

Question: What about the MIC90 [1, 9] of the same molecule?
Answer: 1 µg/mL (≈ 0.69 µM)

Question: And the MIC50 [1, 10]?
Answer: 4 µg/mL

Question: And the MIC90 [1, 10]?
Answer: 32 µg/mL

Question: And the MIC [1, 11]?
Answer: 0.5 to 1 µg/mL (≈ 0.345 to 0.69 µM)

Question: And the MIC [1, 12]?
Answer: 0.5 to 2 µg/mL (≈ 0.345 to 1.38 µM)

Question: With `CCCCCCCCCC(=O)N[C@@H](Cc1c[nH]c2ccccc12)C(=O)N[C@H](CC(N)=O)C(=O)N[C@@H](CC(=O)O)C(=O)N[C@@H]1C(=O)NCC(=O)N[C@@H](CCCN)C(=O)N[C@@H](CC(=O)O)C(=O)N[C@H](C)C(=O)N[C@@H](CC(=O)O)C(=O)NCC(=O)N[C@H](CO)C(=O)N[C@@H]([C@H](C)CC(=O)O)C(=O)N[C@@H](CC(=O)c2ccccc2N)C(=O)O[C@@H]1C` [Daptomycin] as the molecule, how does the MIC50 [2, 4] read?
Answer: 0.25 µg/mL (≈ 0.154 µM)

Question: And the MIC90 [2, 5]?
Answer: 0.5 µg/mL (≈ 0.309 µM)

Question: What about the MIC [2, 6] of the same molecule?
Answer: 0.5 µg/mL (≈ 0.309 µM)

Question: And the MIC [2, 7]?
Answer: 0.25 µg/mL (≈ 0.154 µM)

Question: And the MIC50 [1, 8]?
Answer: 1 µg/mL (≈ 0.617 µM)

Question: And the MIC90 [1, 8]?
Answer: 1 µg/mL (≈ 0.617 µM)

Question: And the MIC50 [1, 9]?
Answer: 0.25 µg/mL (≈ 0.154 µM)

Question: And the MIC90 [1, 9]?
Answer: 0.25 µg/mL (≈ 0.154 µM)

Question: And the MIC50 [1, 10]?
Answer: 1 µg/mL

Question: What about the MIC90 [1, 10] of the same molecule?
Answer: 2 µg/mL

Question: What about the MIC [1, 11] of the same molecule?
Answer: 0.5 to 1 µg/mL (≈ 0.309 to 0.617 µM)

Question: And the MIC [1, 12]?
Answer: 0.12 to 1 µg/mL (≈ 0.074 to 0.617 µM)

Question: What about the MIC ([1]; Staphylococcus aureus, read-out: MIC Range, hVISA(2) + VISA (24) + VRSA (5)) of the same molecule?
Answer: 0.12 to 4 µg/mL

Question: With `CO/N=C1\CN(c2nc3c(cc2F)c(=O)c(C(=O)O)cn3C2CC2)CC1CN` (centres unmarked) [Gemifloxacin] as the molecule, how does the MIC50 (H. pylori isolates; [13]) read?
Answer: 60 µg/mL (≈ 154 µM)

Question: What about the MIC90 (H. pylori isolates; [13]) of the same molecule?
Answer: 120 µg/mL (≈ 308 µM)

Question: Which results are given for `Cc1nnc(SCC2=C(C(=O)O)N3C(=O)[C@@H](NC(=O)Cn4cnnn4)[C@H]3SC2)s1` [Cefazolin]?
Answer: MIC50 [2, 4]: 128 µg/mL (≈ 282 µM); MIC90 [2, 5]: > 128 µg/mL; MIC [2, 6]: > 128 µg/mL; MIC [2, 7]: 2 µg/mL (≈ 4.4 µM)

Question: Which “share of isolates resistant” value (H. pylori isolates) does the source give for `CC1(C)S[C@@H]2[C@H](NC(=O)[C@H](N)c3ccc(O)cc3)C(=O)N2[C@H]1C(=O)O` [amoxicillin] here?
Answer: 2%
